Columns and labels:
[1] = HPLC analysis of 25HC3S and 25HC levels in liver tissues; assay type: in vivo, C57BL/6J female mice; conditions: HFD mice, acute treatment
[2] = test system: lipogenic gene expression; test: Relative hepatic mRNA expression by real-time RT-PCR, acute treatment; assay type: in vivo, C57BL/6J female mice; conditions: liver; for ABCA1 relative hepatic mRNA / ABCG1 relative hepatic mRNA / ACC1 relative hepatic mRNA / ACOX1 relative hepatic mRNA / CD36 relative hepatic mRNA / CPT1 relative hepatic mRNA / CYP7α relative hepatic mRNA / CYP27α relative hepatic mRNA / FABP1 relative hepatic mRNA / FAS relative hepatic mRNA / FATP relative hepatic mRNA / G6Pase relative hepatic mRNA / GCK relative hepatic mRNA / GPAM relative hepatic mRNA / LDLR relative hepatic mRNA / LXRα relative hepatic mRNA / MCAD relative hepatic mRNA / MTTP relative hepatic mRNA / PCK1 relative hepatic mRNA / PLTP relative hepatic mRNA / PPARα relative hepatic mRNA / Pkir relative hepatic mRNA / SCD relative hepatic mRNA / SRB1 relative hepatic mRNA / SREBP-1c relative hepatic mRNA / SULT2B1b relative hepatic mRNA: acute treatment (twice), mean ± SD, n=5-6
Protocol: (§1) Animal studies were approved by Institutional Animal Care and Use Committee of McGuire Veterans Affairs Medical Center and were conducted in accordance with the Declaration of Helsinki, the Guide for the Care and Use of Laboratory Animals, and all applicable regulations. To examine the effect of 25HC3S on diet-induced lipid accumulation in sera and liver, 8-week-old female C57BL/6J mice (Charles River, Wilmington, Mass.) were randomly assigned to three groups: the first control group was fed a chow diet; the high fat diet (HFD) group was fed a HFD (Harlan Teklad, Madison, Wis.) containing 42% kcal from fat, 43% kcal from carbohydrate, 15% kcal from protein and 0.2% cholesterol; and the high cholesterol diet (HCD) group was fed a 2% cholesterol diet with 18% kcal from fat, 58% kcal from carbohydrate and 24% kcal from protein for 10 weeks, respectively. All mice were housed under identical conditions in an aseptic facility and given free access to water and food. At the end of each period, the mice were intraperitoneally injected with vehicle solution (ethanol/PBS; Vehicle), 25HC (25 mg/kg), or 25HC3S (25 mg/kg) for 2 times and fasted over night for acute treatment (n=15-17 for each group) or once every three days for 6 weeks (n=16 for each group) and fasted 5 hrs for long-term treatment; and blood samples were collected. Serum triglyceride, total cholesterol, high density lipoprotein-cholesterol, glucose, alkaline phosphatase (ALK), alanine aminotransferase (ALT), and aspartate aminotransferase (AST) were measured using standard enzymatic techniques in the clinical laboratory at McGuire Veterans Affairs Medical Center. Lipoprotein profiles in sera were analyzed by HPLC as following described.
Total RNA was isolated with SV Total RNA Isolation Kit (Promega, Madison, Wis.), which included DNase treatment. Total RNA, 2 μg, was used for the first-strand cDNA synthesis as recommended by the manufacturer (Invitrogen, Carlsbad, Calif.). Real-time RT-PCR was performed using SYBR Green as indicator on ABI 7500 Fast Real-Time PCR System (Applied Biosystems, Foster City, Calif.). All primer/probe sets for real-time PCR were TaqMan gene expression assays (Applied Biosystems, Foster City, Calif.). Amplifications of β-actin and GAPDH were used as internal controls. Relative messenger RNA (mRNA) expression was quantified with the comparative cycle threshold (Ct) method and was expressed as 2^−ΔΔCt. Suitable primers were utilized.

[3] = test system: LXR signaling pathway; test: Western blot of LXR and its target genes and PCNA in mouse liver (Example 3); assay type: in vivo, C57BL/6 mice
Protocol: Cayman Chemical, Ann Arbor, Mich.); […] […] Metabolism. (Accepted)]. […] Cell lysates were prepared from frozen mouse liver tissues. Total proteins, 100 μg, were separated by 10% SDS-PAGE, and transferred to PVDF membrane (Millipore, Eschbom, Germany). […] Louis, Mo.) was used as a loading control. The immunoreactive bands were detected by Fujifilm Medical System (Fujifilm, Stamford, Conn.) and quantified by Advanced Image Data Analyzer (Aida Inc., Straubenhardt, Germany).

[4] = Serum parameters after acute treatment of HFD- or HCD-fed mice (NAFLD model); assay type: in vivo, C57BL/6J female mice; conditions: 25 mg/kg i.p. twice, fasted overnight, mean ± SD, n=15-17
Protocol: as §1

[5] = test system: SREBP-1c pathway; test: Western blot of cytoplasmic and nuclear liver extracts, acute treatment; assay type: in vivo, C57BL/6J female mice; conditions: HFD mice
Protocol: Animal studies were approved by Institutional Animal Care and Use Committee of McGuire Veterans Affairs Medical Center and were conducted in accordance with the Declaration of Helsinki, the Guide for the Care and Use of Laboratory Animals, and all applicable regulations. […] All mice were housed under identical conditions in an aseptic facility and given free access to water and food. At the end of each period, the mice were intraperitoneally injected with vehicle solution (ethanol/PBS; […] Serum triglyceride, total cholesterol, high density lipoprotein-cholesterol, glucose, alkaline phosphatase (ALK), alanine aminotransferase (ALT), and aspartate aminotransferase (AST) were measured using standard enzymatic techniques in the clinical laboratory at McGuire Veterans Affairs Medical Center. Lipoprotein profiles in sera were analyzed by HPLC as following described. Liver tissues were homogenized, and cytoplasmic and nuclear fractions were extracted with NE-PER Nuclear and Cytoplasmic Extraction Kit (Fisher Scientific, Pittsburgh, Pa.). […] Each positive band was quantified by Advanced Image Data Analyzer (Aida, Straubenhardt, Germany).

[6] = HFD mice, acute treatment, compared to vehicle

CC(CCCC(C)(C)O)C1CCC2C3CC=C4CC(OS(=O)(=O)O)CCC4(C)C3CCC12C (stereo not shown) [25HC3S, 25-hydroxycholesterol-3-sulfate]
level of the administered compound in liver [1]: significantly increased | ABCA1 relative hepatic mRNA ([2]; HFD mice): 0.71 ± 0.12 | ABCG1 relative hepatic mRNA ([2]; HFD mice): 1.14 ± 0.76 | ACC1 relative hepatic mRNA ([2]; HFD mice): 0.56 ± 0.12 | ACOX1 relative hepatic mRNA ([2]; HFD mice): 0.82 ± 0.16 | CD36 relative hepatic mRNA ([2]; HFD mice): 0.93 ± 0.36 | CPT1 relative hepatic mRNA ([2]; HFD mice): 1.05 ± 0.19 | CYP7α relative hepatic mRNA ([2]; HFD mice): 0.60 ± 0.18 | CYP27α relative hepatic mRNA ([2]; HFD mice): 1.06 ± 0.23 | FABP1 relative hepatic mRNA ([2]; HFD mice): 1.14 ± 0.45 | FAS relative hepatic mRNA ([2]; HFD mice): 0.33 ± 0.21 | FATP relative hepatic mRNA ([2]; HFD mice): 1.05 ± 0.29 | G6Pase relative hepatic mRNA ([2]; HFD mice): 1.36 ± 0.77 | GCK relative hepatic mRNA ([2]; HFD mice): 1.10 ± 0.68 | GPAM relative hepatic mRNA ([2]; HFD mice): 1.16 ± 0.08 | LDLR relative hepatic mRNA ([2]; HFD mice): 1.07 ± 0.09 | LXRα relative hepatic mRNA ([2]; HFD mice): 0.79 ± 0.10 | MCAD relative hepatic mRNA ([2]; HFD mice): 1.36 ± 0.31 | MTTP relative hepatic mRNA ([2]; HFD mice): 1.31 ± 0.20 | PCK1 relative hepatic mRNA ([2]; HFD mice): 1.02 ± 0.25 | PLTP relative hepatic mRNA ([2]; HFD mice): 0.97 ± 0.55 | PPARα relative hepatic mRNA ([2]; HFD mice): 0.93 ± 0.35 | Pkir relative hepatic mRNA ([2]; HFD mice): 0.61 ± 0.18 | SCD relative hepatic mRNA ([2]; HFD mice): 0.93 ± 0.27 | SRB1 relative hepatic mRNA ([2]; HFD mice): 1.30 ± 0.22 | SREBP-1c relative hepatic mRNA ([2]; HFD mice): 0.56 ± 0.13 | SULT2B1b relative hepatic mRNA ([2]; HFD mice): 1.29 ± 0.34 | reduction of ACCT mRNA level [2, 6]: 45% | reduction of FAS mRNA level [2, 6]: 70% | reduction of LXRα mRNA level [2, 6]: 20% | reduction of SREBP-1c mRNA level [2, 6]: 45% | decrease of ABCA1 protein level ([3]; 5 mg/kg, 48 h): 50% | decrease of LXRα protein level ([3]; 5 mg/kg, 48 h): 40% | decrease of SREBP-1c protein level ([3]; 5 mg/kg, 48 h): 30% | increase of PCNA protein level ([3]; 5 mg/kg, 48 h): 2 fold | ALK ([4]; HCD 10 weeks): 89 ± 19 IU/L | ALT ([4]; HCD 10 weeks): 44 ± 5 IU/L | AST ([4]; HCD 10 weeks): 227 ± 48 IU/L | Cholesterol ([4]; HCD 10 weeks): 86 ± 7 mg/dL | Glucose ([4]; HCD 10 weeks): 249 ± 39 mg/dL | HDL-C ([4]; HCD 10 weeks): 77 ± 7 mg/dL | Triglycerides ([4]; HCD 10 weeks): 43 ± 8 mg/dL | ALK ([4]; HFD 10 weeks): 76 ± 21 IU/L | ALT ([4]; HFD 10 weeks): 47 ± 6 IU/L | AST ([4]; HFD 10 weeks): 222 ± 54 IU/L | Cholesterol ([4]; HFD 10 weeks): 87 ± 24 mg/dL | Glucose ([4]; HFD 10 weeks): 245 ± 50 mg/dL | HDL-C ([4]; HFD 10 weeks): 72 ± 26 mg/dL | Triglycerides ([4]; HFD 10 weeks): 34 ± 9 mg/dL | suppression of FAS protein level [5]: 40% | suppression of cytoplasmic ACC1 protein level [5]: 50% | suppression of nuclear SREBP-1c protein level [5]: 70%

C[C@H](CCCC(C)(C)O)[C@H]1CC[C@H]2[C@@H]3CC=C4C[C@@H](O)CC[C@]4(C)[C@H]3CC[C@]12C [25HC, 25-hydroxycholesterol]
level of the administered compound in liver [1]: significantly increased | decrease of ACOX1 mRNA level ([2]; HFD mice, acute treatment): 55% | decrease of PPARα mRNA level ([2]; HFD mice, acute treatment): 40% | decrease of SCD mRNA level ([2]; HFD mice, acute treatment): 40% | increase of ACC1 mRNA level ([2]; HFD mice, acute treatment): 160% | increase of FAS mRNA level ([2]; HFD mice, acute treatment): 150% | increase of SREBP-1c mRNA level ([2]; HFD mice, acute treatment): 170% | increase of SULT2B1b expression ([2]; HFD mice, acute treatment): 3 fold | ABCA1 relative hepatic mRNA ([2]; HFD mice): 1.08 ± 0.24 | ABCG1 relative hepatic mRNA ([2]; HFD mice): 1.38 ± 0.78 | ACC1 relative hepatic mRNA ([2]; HFD mice): 1.58 ± 0.64 | ACOX1 relative hepatic mRNA ([2]; HFD mice): 0.45 ± 0.17 | CD36 relative hepatic mRNA ([2]; HFD mice): 0.71 ± 0.24 | CPT1 relative hepatic mRNA ([2]; HFD mice): 0.94 ± 0.16 | CYP7α relative hepatic mRNA ([2]; HFD mice): 0.19 ± 0.18 | CYP27α relative hepatic mRNA ([2]; HFD mice): 1.00 ± 0.12 | FABP1 relative hepatic mRNA ([2]; HFD mice): 0.48 ± 0.15 | FAS relative hepatic mRNA ([2]; HFD mice): 1.45 ± 0.18 | FATP relative hepatic mRNA ([2]; HFD mice): 0.67 ± 0.12 | G6Pase relative hepatic mRNA ([2]; HFD mice): 0.25 ± 0.13 | GCK relative hepatic mRNA ([2]; HFD mice): 0.57 ± 0.16 | GPAM relative hepatic mRNA ([2]; HFD mice): 1.12 ± 0.27 | LDLR relative hepatic mRNA ([2]; HFD mice): 1.38 ± 0.50 | LXRα relative hepatic mRNA ([2]; HFD mice): 0.98 ± 0.09 | MCAD relative hepatic mRNA ([2]; HFD mice): 0.75 ± 0.12 | MTTP relative hepatic mRNA ([2]; HFD mice): 1.04 ± 0.14 | PCK1 relative hepatic mRNA ([2]; HFD mice): 1.47 ± 0.37 | PLTP relative hepatic mRNA ([2]; HFD mice): 0.81 ± 0.36 | PPARα relative hepatic mRNA ([2]; HFD mice): 0.59 ± 0.09 | Pkir relative hepatic mRNA ([2]; HFD mice): 0.77 ± 0.13 | SCD relative hepatic mRNA ([2]; HFD mice): 0.59 ± 0.13 | SRB1 relative hepatic mRNA ([2]; HFD mice): 1.52 ± 0.31 | SREBP-1c relative hepatic mRNA ([2]; HFD mice): 1.69 ± 0.75 | SULT2B1b relative hepatic mRNA ([2]; HFD mice): 3.33 ± 0.89 | increase of IL1α expression ([2]; data not shown): 217% | increase of NFκB expression ([2]; data not shown): 168% | expression of ABCA1 and SREBP-1c ([3]; Ad-Control and 25HC co-treatment group): effectively up-regualted | ALK ([4]; HFD 10 weeks): 55 ± 12 IU/L | ALT ([4]; HFD 10 weeks): 56 ± 14 IU/L | AST ([4]; HFD 10 weeks): 294 ± 57 IU/L | Cholesterol ([4]; HFD 10 weeks): 144 ± 24 mg/dL | Glucose ([4]; HFD 10 weeks): 188 ± 26 mg/dL | HDL-C ([4]; HFD 10 weeks): 119 ± 21 mg/dL | Triglycerides ([4]; HFD 10 weeks): 49 ± 13 mg/dL | nuclear SREBP-1, cytoplasmic ACC1 and FAS protein levels [5]: increased
